Source: the NIST ThermoML archive (doi:10.1016/j.jct.2017.08.035)
± gives the expanded uncertainty stated by the source.

Test: wn = mass fraction of the nth substance listed
Details: for surface tension liquid-gas: Maximal bubble pressure; for mass density: 100 kPa, Liquid, Vibrating tube method

CC(=O)[O-].CCn1cc[n+](CCOC)c1 [1-ethyl-3-(2-methoxyethyl)imidazolium acetate] + O
Details | mass density, w2 = 0.00822 [kg/m3] | mass density, w2 = 0.00966 [kg/m3] | mass density, w2 = 0.01112 [kg/m3] | mass density, w2 = 0.01254 [kg/m3] | mass density, w2 = 0.01399 [kg/m3] | surface tension liquid-gas, w2 = 0.00188 [mN/m] | surface tension liquid-gas, w2 = 0.0034 [mN/m] | surface tension liquid-gas, w2 = 0.00488 [mN/m] | surface tension liquid-gas, w2 = 0.00638 [mN/m] | surface tension liquid-gas, w2 = 0.00792 [mN/m]
298.15 K | 1193.01 ± 2.3 | 1193.1 ± 2.3 | 1193.21 ± 2.3 | 1193.32 ± 2.3 | 1193.44 ± 2.3 | 46.3 ± 0.5 | 46.5 ± 0.5 | 46.7 ± 0.5 | 47 ± 0.5 | 47.3 ± 0.5
303.15 K | 1189.68 ± 2.3 | 1189.78 ± 2.3 | 1189.89 ± 2.3 | 1189.98 ± 2.3 | 1190.11 ± 2.3 | 46 ± 0.5 | 46.2 ± 0.5 | 46.4 ± 0.5 | 46.7 ± 0.5 | 47 ± 0.5
308.15 K | 1186.36 ± 2.3 | 1186.45 ± 2.3 | 1186.56 ± 2.3 | 1186.66 ± 2.3 | 1186.79 ± 2.3 | 45.7 ± 0.5 | 45.9 ± 0.5 | 46.2 ± 0.5 | 46.4 ± 0.5 | 46.7 ± 0.5
313.15 K | 1183.05 ± 2.3 | 1183.14 ± 2.3 | 1183.25 ± 2.3 | 1183.35 ± 2.3 | 1183.48 ± 2.3 | 45.4 ± 0.5 | 45.7 ± 0.5 | 45.9 ± 0.5 | 46.1 ± 0.5 | 46.4 ± 0.5
318.15 K | 1179.76 ± 2.3 | 1179.85 ± 2.3 | 1179.96 ± 2.3 | 1180.06 ± 2.3 | 1180.19 ± 2.3 | 45.1 ± 0.5 | 45.3 ± 0.5 | 45.6 ± 0.5 | 45.8 ± 0.5 | 46.1 ± 0.5
323.15 K | 1176.48 ± 2.3 | 1176.57 ± 2.3 | 1176.68 ± 2.3 | 1176.78 ± 2.3 | 1176.91 ± 2.3 | 44.8 ± 0.5 | 45.1 ± 0.5 | 45.3 ± 0.5 | 45.5 ± 0.5 | 45.8 ± 0.5
328.15 K | 1173.21 ± 2.3 | 1173.31 ± 2.3 | 1173.42 ± 2.3 | 1173.52 ± 2.3 | 1173.65 ± 2.3 | 44.6 ± 0.5 | 44.9 ± 0.5 | 45.1 ± 0.5 | 45.3 ± 0.5 | 45.6 ± 0.5
333.15 K | 1169.97 ± 2.3 | 1170.06 ± 2.3 | 1170.17 ± 2.3 | 1170.27 ± 2.3 | 1170.4 ± 2.3 | 44.4 ± 0.5 | 44.7 ± 0.5 | 44.8 ± 0.5 | 45.1 ± 0.5 | 45.3 ± 0.5
338.15 K | 1166.74 ± 2.3 | 1166.82 ± 2.3 | 1166.93 ± 2.3 | 1167.03 ± 2.3 | 1167.16 ± 2.3 | 44.2 ± 0.5 | 44.5 ± 0.5 | 44.6 ± 0.5 | 44.9 ± 0.5 | 45.1 ± 0.5
